Experimental data taken from patent publication US20250034170A1, “SMALL MOLECULE MODULATORS OF GLUCOCEREBROSIDASE ACTIVITY AND USES THEREOF” (Vanqua Bio, Inc., priority 2021, published 2025).

molecular target: T1, GCase (Homo sapiens, UniProt P04062); assay: activation of GCase in a live cell PFB assay in HELA cells; format: cell-based; conditions: EC50 given as range classes
T1 construct: endogenous in cells; host or cells: HeLa cells
T1 sequence (P04062 40-536): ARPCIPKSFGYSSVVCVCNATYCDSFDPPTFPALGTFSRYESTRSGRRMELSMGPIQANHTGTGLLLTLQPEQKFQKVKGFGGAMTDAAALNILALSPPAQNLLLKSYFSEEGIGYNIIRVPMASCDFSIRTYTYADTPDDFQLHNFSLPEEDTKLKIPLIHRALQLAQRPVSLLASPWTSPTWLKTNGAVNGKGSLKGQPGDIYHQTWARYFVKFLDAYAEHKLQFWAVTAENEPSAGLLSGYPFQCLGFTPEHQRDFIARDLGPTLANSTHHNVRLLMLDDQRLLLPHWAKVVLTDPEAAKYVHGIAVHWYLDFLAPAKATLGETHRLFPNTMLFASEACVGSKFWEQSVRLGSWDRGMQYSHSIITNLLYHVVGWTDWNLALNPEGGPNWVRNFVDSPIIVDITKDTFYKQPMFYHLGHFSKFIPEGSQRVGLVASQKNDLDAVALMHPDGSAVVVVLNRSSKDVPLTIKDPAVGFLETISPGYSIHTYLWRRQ
Experimental: Exemplary compounds were evaluated for activation of GCase in a live cell PFB assay in HELA cells (essentially as described in Ysselstein et al., “LRRK2 kinase activity regulates lysosomal glucocerebrosidase in neurons derived from Parkinson's disease patients” Nature Communications (2019) 10:5570). […] EC50 ranges: A: <10 μM; B: >10-50 μM; C: >50-100 μM; D: >100 μM.

| EC50 [µM] | Structure (SMILES) |
| --- | --- |
| 10 to 50 | Cn1c(N2CCC3(CN(c4ccc(C(F)(F)F)cn4)C3)C2)nc2c(cnn2CC(F)F)c1=O [Cmpd 996] |
| 50 to 100 | O=C1N(c2cnc3cnn(CC(F)F)c3n2)CCC12CN(c1ccc(C(F)(F)F)nc1)C2 [Cmpd 1010] |
| 10 to 50 | O=C1N(c2cnc3cnn(CC(F)F)c3n2)CCC12CN(c1ccc(C(F)(F)F)cn1)C2 [Cmpd 1011] |
| 10 to 50 | O=C1N(c2cnc3cnn(CC(F)F)c3n2)CCC12CN(c1cnc(C(F)(F)F)nc1)C2 [Cmpd 1012] |

Further lines, the molecule ahead of its results:

| Structure (SMILES) | EC50 [µM] |
| --- | --- |
| Cn1c(=O)n(C2COC2)c2nc(N3CCC4(CN(c5ccnc(C(F)(F)F)c5)C4)C3)cnc21 [Cmpd 978] | < 10 |
| Cn1c(=O)n(C2COC2)c2ncc(N3CCC4(CN(c5ccnc(C(F)(F)F)c5)C4)C3)nc21 [Cmpd 979] | < 10 |
| CCn1c(=O)n(CC(F)F)c2nc(N3CCC4(CN(c5ccnc(C(F)(F)F)c5)C4)C3)cnc21 [Cmpd 980] | < 10 |
| CCn1c(=O)n(C2COC2)c2nc(N3CCC4(CN(c5ccnc(C(F)(F)F)c5)C4)C3)cnc21 [Cmpd 981] | 10 to 50 |
| CCn1c(=O)n(C2COC2)c2ncc(N3CCC4(CN(c5ccnc(C(F)(F)F)c5)C4)C3)nc21 [Cmpd 982] | 10 to 50 |
| CCN1C(=O)N(c2ccnc(C(F)(F)F)c2)C(=O)C12CCN(c1cnc3cnn(C4COC4)c3n1)CC2 [Cmpd 983] | 10 to 50 |
| CCN1C(=O)N(c2ccnc(C(F)(F)F)c2)C(=O)C12CCN(c1cnc3c(C)nn(C4COC4)c3n1)CC2 [Cmpd 984] | < 10 |
| Cc1nn(CC(F)F)c2nc(N3CCC4(CN(c5ccnc(C(F)(F)F)c5)C4)C3)cnc12 [Cmpd 985] | > 100 |
| FC(F)(F)c1cc(N2CC3(CCN(c4nccc(-c5nncs5)n4)C3)C2)ccn1 [Cmpd 986] | < 10 |
| FC(F)(F)c1cc(N2CC3(CCN(c4cnc5cnn(C6COC6)c5n4)C3)C2)ccn1 [Cmpd 987] | > 100 |
| Cn1c(N2CCC3(CN(c4cnc(C(F)(F)F)nc4)C3)C2)nc2c(cnn2CC(F)F)c1=O [Cmpd 988] | < 10 |
| Cn1c(N2CCC3(CN(c4ccnc(C(F)(F)F)c4)C3)C2)nc2c(cnn2CC(F)F)c1=O [Cmpd 989] | > 100 |
| CCn1ncc2c(=O)n(C)c(N3CCC4(CN(c5cnc(C(F)(F)F)nc5)C4)C3)nc21 [Cmpd 990] | < 10 |
| Cn1c(N2CCC3(CN(c4ccnc(C(F)(F)F)n4)C3)C2)nc2c(cnn2CC(F)F)c1=O [Cmpd 991] | < 10 |
| Cn1c(N2CCC3(CN(c4ccnc(C(F)(F)F)c4)C3)C2=O)nc2c(cnn2CC(F)F)c1=O [Cmpd 992] | 10 to 50 |
| Cn1c(N2CCC3(CN(c4ccnc(C(F)(F)F)c4)C3)C2)nc2c(cnn2C2COC2)c1=O [Cmpd 993] | 50 to 100 |
| Cc1nn(CC(F)F)c2nc(N3CCC4(CN(c5ccnc(C(F)(F)F)c5)C4)C3)n(C)c(=O)c12 [Cmpd 994] | < 10 |

| Structure (SMILES) | EC50 [µM] |
| --- | --- |
| Cc1nn(C2COC2)c2nc(N3CCC4(CN(c5ccnc(C(F)(F)F)c5)C4)C3)n(C)c(=O)c12 [Cmpd 995] | < 10 |
| Cn1c(N2CCC3(CN(c4ccc(C(F)(F)F)nc4)C3)C2)nc2c(cnn2CC(F)F)c1=O [Cmpd 997] | < 10 |
| Cn1c(N2CC3(CC2=O)CN(c2ccnc(C(F)(F)F)c2)C3)nc2c(cnn2CC(F)F)c1=O [Cmpd 998] | 10 to 50 |
| O=C1N(c2ncc3cnn(CC(F)F)c3n2)CCC12CN(c1ccnc(C(F)(F)F)c1)C2 [Cmpd 999] | 10 to 50 |
| Cc1nn(CC(F)F)c2nc(N3CCC4(CN(c5ccnc(C(F)(F)F)c5)C4)C3=O)ncc12 [Cmpd 1000] | < 10 |
| Cc1nn(CC(F)F)c2nc(N3CCC4(CN(c5ccnc(C(F)(F)F)c5)C4)C3=O)cnc12 [Cmpd 1001] | < 10 |
| Cc1nn(C2COC2)c2nc(N3CCC4(CN(c5ccnc(C(F)(F)F)c5)C4)C3=O)cnc12 [Cmpd 1002] | < 10 |
| O=C1N(c2cnc3cnn(C4COC4)c3n2)CCC12CN(c1ccnc(C(F)(F)F)c1)C2 [Cmpd 1003] | 10 to 50 |
| O=C1N(c2ncc3cnn(C4COC4)c3n2)CCC12CN(c1ccnc(C(F)(F)F)c1)C2 [Cmpd 1004] | 10 to 50 |
| O=C1CC2(CN(c3ccnc(C(F)(F)F)c3)C2)CN1c1ncc2cnn(CC(F)F)c2n1 [Cmpd 1005] | 10 to 50 |
| Cc1nn(CC(F)F)c2nc(N3CC4(CC3=O)CN(c3ccnc(C(F)(F)F)c3)C4)ncc12 [Cmpd 1006] | 10 to 50 |
| Cc1nn(CC(F)F)c2nc(N3CC4(CC3=O)CN(c3ccnc(C(F)(F)F)c3)C4)cnc12 [Cmpd 1007] | < 10 |
| O=C1CC2(CN(c3ccnc(C(F)(F)F)c3)C2)CN1c1ncc2cnn(C3COC3)c2n1 [Cmpd 1008] | 10 to 50 |
| Cc1nn(C2COC2)c2nc(N3CC4(CC3=O)CN(c3ccnc(C(F)(F)F)c3)C4)ncc12 [Cmpd 1009] | 10 to 50 |
| Cn1c(N2CCC3(CCN(c4ccnc(C(F)(F)F)c4)C3)CC2)nc2c(cnn2CC(F)F)c1=O [Cmpd 1013] | < 10 |
| Cn1c(N2CCC3(CCN(c4ccnc(C(F)(F)F)n4)C3)CC2)nc2c(cnn2CC(F)F)c1=O [Cmpd 1014] | < 10 |

same assay, conditions: activation of GCase, EC50 ranges

| EC50 [µM] | Structure (SMILES) |
| --- | --- |
| < 10 | CCOc1nn(CC(F)F)c2nc(N3CCC4(CC3)CC(=O)N(c3ccc(C(F)(F)F)nc3)C4)cnc12 [Cmpd 947] |
| 10 to 50 | COc1nn(CC(F)F)c2nc(N3CCC4(CC3)CC(=O)N(c3ccc(C(F)(F)F)nc3)C4)ncc12 [Cmpd 948] |
| 10 to 50 | O=C1CC2(CCN(c3cnc4cnn(CC(F)F)c4n3)CC2)C(CCF)N1c1ccnc(C(F)(F)F)c1 (stereo not drawn) [Cmpd 954] |
| < 10 | O=C1CC2(CCN(c3cnc4cnn(CC(F)F)c4n3)CC2)C(CC(F)F)N1c1ccnc(C(F)(F)F)c1 (stereo not drawn) [Cmpd 955] |
| > 100 | Cc1cnc(C(F)(F)F)nc1N1CC2(CCN(c3cnc4cnn(CC(F)F)c4n3)CC2)CC1=O [Cmpd 956] |
| 10 to 50 | Cc1nc(C(F)(F)F)ncc1N1CC2(CCN(c3cnc4cnn(CC(F)F)c4n3)C2)C1 [Cmpd 957] |
| 10 to 50 | Cc1nc(OCC(F)(F)F)ncc1N1CC2(CCN(c3cnc4cnn(CC(F)F)c4n3)C2)C1 [Cmpd 959] |
| 10 to 50 | FC(F)Cn1ncc2ncc(N3CCC4(CN(c5ccnc(OCC(F)(F)F)n5)C4)C3)nc21 [Cmpd 960] |
| 10 to 50 | Cc1cnc(C(F)(F)F)nc1N1CC2(CCN(c3cnc4cnn(CC(F)F)c4n3)C2)C1 [Cmpd 961] |
| < 10 | O=C1CC2(CCN(c3cnc4cnn(CC(F)F)c4n3)CC2)CN1Cc1ncc(C(F)(F)F)cc1F [Cmpd 963] |
| < 10 | CC(c1ccc(C(F)(F)F)cn1)N1CC2(CCN(c3cnc4cnn(CC(F)F)c4n3)CC2)CC1=O (stereo not drawn) [Cmpd 964] |
| 10 to 50 | CC(c1ccc(C(F)(F)F)nc1)N1CC2(CCN(c3cnc4cnn(CC(F)F)c4n3)CC2)CC1=O (stereo not drawn) [Cmpd 965] |
| < 10 | O=C1CC2(CCN(c3cnc4cnn(CC(F)F)c4n3)CC2)CN1Cc1ccnc(C(F)(F)F)c1F [Cmpd 966] |
| < 10 | CC(c1ccc(Cl)cn1)N1CC2(CCN(c3cnc4cnn(CC(F)F)c4n3)CC2)CC1=O (stereo not drawn) [Cmpd 967] |
| < 10 | CC(c1cncc(Cl)c1)N1CC2(CCN(c3cnc4cnn(CC(F)F)c4n3)CC2)CC1=O (stereo not drawn) [Cmpd 968] |
| < 10 | CC(c1ccnc(C(F)(F)F)c1)N1CC2(CCN(c3cnc4cnn(CC(F)F)c4n3)CC2)CC1=O (stereo not drawn) [Cmpd 969] |
| 50 to 100 | COc1nccc(CN2CC3(CCN(c4cnc5cnn(CC(F)F)c5n4)CC3)CC2=O)n1 [Cmpd 970] |
| < 10 | O=C1CC2(CCN(c3cnc4cnn(CC(F)F)c4n3)CC2)CN1Cc1ccnc(OCC(F)(F)F)n1 [Cmpd 971] |
| 10 to 50 | Cc1cc(CN2CC3(CCN(c4cnc5cnn(CC(F)F)c5n4)CC3)CC2=O)on1 [Cmpd 972] |
| 10 to 50 | CCc1sc(C(F)(F)F)nc1N1CC2(CCN(c3cnc4cnn(CC(F)F)c4n3)CC2)CC1=O [Cmpd 973] |
| 50 to 100 | Cc1ncc(CN2CC3(CCN(c4cnc5cnn(CC(F)F)c5n4)CC3)CC2=O)o1 [Cmpd 974] |
| 10 to 50 | Cc1cnc(CN2CC3(CCN(c4cnc5cnn(CC(F)F)c5n4)CC3)CC2=O)s1 [Cmpd 975] |
| < 10 | CCc1cnc(CN2CC3(CCN(c4cnc5cnn(CC(F)F)c5n4)CC3)CC2=O)s1 [Cmpd 976] |

The next lines start with the molecule.

| Structure (SMILES) | EC50 [µM] |
| --- | --- |
| CCOc1nn(C2COC2)c2nc(N3CCC4(CN(c5ccnc(C(F)(F)F)c5)C4)C3)ncc12 [Cmpd 946] | 10 to 50 |
| CCOc1nn(CC(F)F)c2nc(N3CCC4(CC3)CC(=O)N(c3ccc(C(F)(F)F)nc3)C4)ncc12 [Cmpd 949] | 10 to 50 |
| COc1nn(C2COC2)c2nc(N3CCC4(CC3)CC(=O)N(c3ccc(C(F)(F)F)nc3)C4)cnc12 [Cmpd 950] | > 100 |
| CCOc1nn(C2COC2)c2nc(N3CCC4(CC3)CC(=O)N(c3ccc(C(F)(F)F)nc3)C4)cnc12 [Cmpd 951] | < 10 |
| COc1nn(C2COC2)c2nc(N3CCC4(CC3)CC(=O)N(c3ccc(C(F)(F)F)nc3)C4)ncc12 [Cmpd 952] | 10 to 50 |
| CCOc1nn(C2COC2)c2nc(N3CCC4(CC3)CC(=O)N(c3ccc(C(F)(F)F)nc3)C4)ncc12 [Cmpd 953] | 10 to 50 |
| FC(F)Cn1ncc2ncc(N3CCC4(CN(c5cnc(C(F)F)nc5)C4)C3)nc21 [Cmpd 958] | < 10 |
| FC(F)(F)c1cc(N2CC3(CCN(c4ncc5cnn(C6COC6)c5n4)C3)C2)ccn1 [Cmpd 962] | 10 to 50 |
| Cn1c(=O)n(CC(F)F)c2nc(N3CCC4(CN(c5ccnc(C(F)(F)F)c5)C4)C3)cnc21 [Cmpd 977] | 10 to 50 |
